Where a name gives a salt, the structure may show the parent alone. A value given as a limit tells only on which side of the number the result lay.

The results in this text go back to US20140128385A1 (NOVARTIS AG, priority 2011, published 2014).

This assay addresses T1, BACE-2 (Homo sapiens, UniProt Q9Y5Z0).
T1 construct: Recombinant BACE-2 (extracellular domain, expressed in baculovirus and purified using standard methods); made in house
T1 sequence (Q9Y5Z0 63-473 limits assumed): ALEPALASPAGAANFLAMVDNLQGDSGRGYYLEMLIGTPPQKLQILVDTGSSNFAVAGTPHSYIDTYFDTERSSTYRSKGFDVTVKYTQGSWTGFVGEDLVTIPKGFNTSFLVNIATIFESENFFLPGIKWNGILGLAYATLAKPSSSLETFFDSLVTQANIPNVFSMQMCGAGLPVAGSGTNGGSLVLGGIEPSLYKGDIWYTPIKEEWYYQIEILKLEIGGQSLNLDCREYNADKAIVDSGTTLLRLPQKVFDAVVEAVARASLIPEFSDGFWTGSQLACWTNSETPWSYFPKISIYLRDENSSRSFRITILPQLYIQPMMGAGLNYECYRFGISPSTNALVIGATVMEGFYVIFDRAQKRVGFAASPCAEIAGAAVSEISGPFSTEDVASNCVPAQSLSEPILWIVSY
The assay is described as follows: assay for inhibition of BACE-2. Format: biochemical.
The term IC50 denotes the concentration that inhibits the measured activity by half. In turn, `CC1(c2cc(NC(=O)c3ccc(C#N)cn3)ccc2F)N=C(N)COCC1(F)F` (stereo not drawn) [Example 156, 5-Cyano-pyridine-2-carboxylic acid [3-(3-amino-6,6-difluoro-5 methyl-2,5,6,7-tetrahydro[1,4]oxazepin-5-yl)-4 fluoro-phenyl]-amide] displayed an IC50 of 90 nM.
The figure for `NC1=N[C@@](c2cc(NC(=O)c3cc4cncnc4[nH]3)ccc2F)(C(F)F)COC1` [Example 157, 7H-Pyrrolo[2,3-d]pyrimidine-6-carboxylic acid [3-((R)-5-amino-3-difluoromethyl-3,6-dihydro-2H-[1,4]oxazin-3-yl)-4-fluoro-phenyl]-amide hydrochloride] is more than 10000 nM; for `COCCOc1cnc(C(=O)Nc2ccc(F)c([C@]3(C(F)F)COCC(N)=N3)c2)c(N)n1` [Example 158, 3-Amino-5-(2-methoxy-ethoxy)-pyrazine-2-carboxylic acid [3-((R)-5-amino-3-difluoromethyl-3,6-dihydro-2H-[1,4]oxazin-3-yl)-4-fluoro-phenyl]-amide] it is 3380 nM.
The figure for `CCc1ccc(C(=O)Nc2ccc(F)c([C@]3(C(F)F)COCC(N)=N3)c2)nc1` [Example 159, hydrochloride] is 119 nM; for `NC1=N[C@@](c2cc(NC(=O)c3ncc(Cl)cc3N)ccc2F)(C(F)F)COC1` [Example 160, 3-Amino-5-chloro-pyridine-2-carboxylic acid [3-((R)-5-amino-3-difluoromethyl-3,6-dihydro-2H-[1,4]oxazin-3-yl)-4-fluoro-phenyl]-amide hydrochloride] it is 8 nM; for `COc1cnc(C(=O)Nc2ccc(F)c([C@]3(C(F)F)COCC(N)=N3)c2)c(Cl)c1` [Example 161, 3-Chloro-5-methoxy-pyridine-2-carboxylic acid [3-((R)-5-amino-3-difluoromethyl-3,6-dihydro-2H-[1,4]oxazin-3-yl)-4-fluoro-phenyl]-amide] it is 82 nM.
Regarding `NC1=N[C@@](c2cc(NC(=O)c3ccc(=O)[nH]c3)ccc2F)(C(F)F)COC1` [Example 162, 6-Oxo-1,6-dihydro-pyridine-3-carboxylic acid [3-((R)-5-amino-3-difluoromethyl-3,6-dihydro-2H-[1,4]oxazin-3-yl)-4-fluoro-phenyl]-amide hydrochloride], the IC50 is more than 10000 nM.
The figure for `NC1=N[C@@](c2cc(NC(=O)c3cc4cccn4cn3)ccc2F)(C(F)F)COC1` [Example 163, Pyrrolo[1,2-c]pyrimidine-3-carboxylic acid [3-((R)-5-amino-3-difluoromethyl-3,6-dihydro-2H-[1,4]oxazin-3-yl)-4-fluoro-phenyl]-amide] is 405 nM; for `CC#CCOc1cnc(C(=O)Nc2ccc(F)c([C@]3(C(F)F)COCC(N)=N3)c2)cn1` [Example 164, 5-But-2-ynyloxy-pyrazine-2-carboxylic acid [3-((R)-5-amino-3-difluoromethyl-3,6-dihydro-2H-[1,4]oxazin-3-yl)-4-fluoro-phenyl]-amide hydrochloride] it is 76 nM; for `NC1=N[C@@](c2cc(NC(=O)c3ncc(Br)cc3N)ccc2F)(C(F)F)COC1` [Example 165, 3-Amino-5-bromo-pyridine-2-carboxylic acid [3-((R)-5-amino-3-difluoromethyl-3,6-dihydro-2H-[1,4]oxazin-3-yl)-4-fluoro-phenyl]-amide hydrochloride] it is 5 nM.
For the compound `CCn1ccnc1C(=O)Nc1ccc(F)c([C@]2(C(F)F)COCC(N)=N2)c1` [Example 166, 1-Ethyl-1H-imidazole-2-carboxylic acid [3-((R)-5-amino-3-difluoromethyl-3,6-dihydro-2H-[1,4]oxazin-3-yl)-4-fluoro-phenyl]-amide hydrochloride], the IC50 was 378 nM.
Then `C#CCOc1cnc(C(=O)Nc2ccc(F)c([C@]3(C(F)F)COCC(N)=N3)c2)cn1` [Example 167, 5-Prop-2-ynyloxy-pyrazine-2-carboxylic acid [3-((R)-5-amino-3-difluoromethyl-3,6-dihydro-2H-[1,4]oxazin-3-yl)-4-fluoro-phenyl]-amide hydrochloride], with 172 nM; and `Cc1nc(C(=O)Nc2ccc(F)c([C@]3(C(F)F)COCC(N)=N3)c2)c(N)o1` [Example 168, 5-Amino-2-methyl-oxazole-4-carboxylic acid [3-((R)-5-amino-3-difluoromethyl-3,6-dihydro-2H-[1,4]oxazin-3-yl)-4-fluoro-phenyl]-amide hydrochloride], with 35 nM.
For the compound `NC1=N[C@@](c2cc(NC(=O)c3ncc(Cl)cc3O)ccc2F)(C(F)F)COC1` [Example 169, 5-Chloro-3-hydroxy-pyridine-2-carboxylic acid [3-((R)-5-amino-3-difluoromethyl-3,6-dihydro-2H-[1,4]oxazin-3-yl)-4-fluoro-phenyl]-amide], the IC50 was determined as 4 nM. This IC50 is about 8.8-fold lower than that of the compound before.
As to `CC(C)Oc1cnc(C(=O)Nc2ccc(F)c([C@]3(C(F)F)COCC(N)=N3)c2)cn1` [Example 170, 5-Isopropoxy-pyrazine-2-carboxylic acid [3-((R)-5-amino-3-difluoromethyl-3,6-dihydro-2H-[1,4]oxazin-3-yl)-4-fluoro-phenyl]-amide], the IC50 was 2710 nM.
Compound `CCOc1cnc(C(=O)Nc2ccc(F)c([C@]3(C(F)F)COCC(N)=N3)c2)cn1` [Example 171, 5-Ethoxy-pyrazine-2-carboxylic acid [3-((R)-5-amino-3-difluoromethyl-3,6-dihydro-2H-[1,4]oxazin-3-yl)-4-fluoro-phenyl]-amide] displayed an IC50 of 200 nM. Against the preceding compound, the IC50 is about 14-fold lower.
`Cc1c(C(=O)Nc2ccc(F)c([C@]3(C(F)F)COCC(N)=N3)c2)oc2ccc(CN(C)C)cc12` [Example 172, 5-Dimethylaminomethyl-3-methyl-benzofuran-2-carboxylic acid [3-((R)-5-amino-3-difluoromethyl-3,6-dihydro-2H-[1,4]oxazin-3-yl)-4-fluoro-phenyl]-amide hydrochloride] displayed an IC50 of 7 nM.
Turning to `Cc1c(C(=O)Nc2ccc(F)c([C@]3(C(F)F)COCC(N)=N3)c2)nnn1C` [Example 173, 1,5-Dimethyl-1H-[1,2,3]triazole-4-carboxylic acid [3-((R)-5-amino-3-difluoromethyl-3,6-dihydro-2H-[1,4]oxazin-3-yl)-4-fluoro-phenyl]-amide hydrochloride], the IC50 was more than 10000 nM.
Then `COc1cnc(C(=O)Nc2ccc(F)c([C@]3(C(F)F)COCC(N)=N3)c2)c(C)n1` [Example 174, 5-Methoxy-3-methyl-pyrazine-2-carboxylic acid [3-((R)-5-amino-3-difluoromethyl-3,6-dihydro-2H-[1,4]oxazin-3-yl)-4-fluoro-phenyl]-amide hydrochloride], with 276 nM.
Compound `COc1cnc(C(=O)Nc2ccc(F)c([C@]3(C(F)F)COCC(N)=N3)c2)c(N)n1` [Example 175, 3-Amino-5-methoxy-pyrazine-2-carboxylic acid [3-((R)-5-amino-3-difluoromethyl-3,6-dihydro-2H-[1,4]oxazin-3-yl)-4-fluoro-phenyl]-amide hydrochloride] had an IC50 of 111 nM.
Compound `Cc1cc(OC(F)F)cnc1C(=O)Nc1ccc(F)c([C@]2(C(F)F)COCC(N)=N2)c1` [Example 176, 5-Difluoromethoxy-3-methyl-pyridine-2-carboxylic acid [3-((R)-5-amino-3-difluoromethyl-3,6-dihydro-2H-[1,4]oxazin-3-yl)-4-fluoro-phenyl]-amide hydrochloride] yielded an IC50 of 183 nM.
For the compound `Cc1cc(OCF)cnc1C(=O)Nc1ccc(F)c([C@]2(C(F)F)COCC(N)=N2)c1` [Example 177, 5-Fluoromethoxy-3-methyl-pyridine-2-carboxylic acid [3-((R)-5-amino-3-difluoromethyl-3,6-dihydro-2H-[1,4]oxazin-3-yl)-4-fluoro-phenyl]-amide hydrochloride], the IC50 was determined as 37 nM.
Then `COCCOc1cnc(C(=O)Nc2ccc(F)c([C@]3(C(F)F)COCC(N)=N3)c2)c(C)n1` [Example 178, 5-(2-Methoxy-ethoxy)-3-methyl-pyrazine-2-carboxylic acid [3-((R)-5-amino-3-difluoromethyl-3,6-dihydro-2H-[1,4]oxazin-3-yl)-4-fluoro-phenyl]-amide hydrochloride], with 2960 nM; and `COc1cnc(C(=O)Nc2ccc(F)c([C@]3(C(F)F)COCC(N)=N3)c2)c(OC)c1` [Example 179, 3,5-Dimethoxy-pyridine-2-carboxylic acid [3-((R)-5-amino-3-difluoromethyl-3,6-dihydro-2H-[1,4]oxazin-3-yl)-4-fluoro-phenyl]-amide hydrochloride], with 270 nM.
The figure for `COCCOc1ccc(C(=O)Nc2ccc(F)c([C@]3(C(F)F)COCC(N)=N3)c2)nc1` [Example 180, 5-(2-Methoxy-ethoxy)-pyridine-2-carboxylic acid [3-((R)-5-amino-3-difluoromethyl-3,6-dihydro-2H-[1,4]oxazin-3-yl)-4-fluoro-phenyl]-amide hydrochloride] is 1650 nM; for `COCCOc1cnc(C(=O)Nc2ccc(F)c([C@]3(C(F)F)COCC(N)=N3)c2)c(F)c1` [Example 181, 3-Fluoro-5-(2-methoxy-ethoxy)-pyridine-2-carboxylic acid [3-((R)-5-amino-3-difluoromethyl-3,6-dihydro-2H-[1,4]oxazin-3-yl)-4-fluoro-phenyl]-amide hydrochloride] it is 6080 nM.
The figure for `CC#CCOc1cnc(C(=O)Nc2ccc(F)c([C@]3(C(F)F)COCC(N)=N3)c2)c(C)n1` [Example 182, 5-But-2-ynyloxy-3-methyl-pyrazine-2-carboxylic acid [3-((R)-5-amino-3-difluoromethyl-3,6-dihydro-2H-[1,4]oxazin-3-yl)-4-fluoro-phenyl]-amide hydrochloride] is 171 nM.
